In US11975005B2, “Treatment of respiratory diseases” (TIANLI BIOTECH PTY LTD, priority 2015, dated 2024):

Tests used:
ALK5 = target: T1, ALK5 (Homo sapiens, UniProt P36897); assay: ALK5 inhibition (IC50); assay type: biochemical
T1 sequence (P36897 34-503): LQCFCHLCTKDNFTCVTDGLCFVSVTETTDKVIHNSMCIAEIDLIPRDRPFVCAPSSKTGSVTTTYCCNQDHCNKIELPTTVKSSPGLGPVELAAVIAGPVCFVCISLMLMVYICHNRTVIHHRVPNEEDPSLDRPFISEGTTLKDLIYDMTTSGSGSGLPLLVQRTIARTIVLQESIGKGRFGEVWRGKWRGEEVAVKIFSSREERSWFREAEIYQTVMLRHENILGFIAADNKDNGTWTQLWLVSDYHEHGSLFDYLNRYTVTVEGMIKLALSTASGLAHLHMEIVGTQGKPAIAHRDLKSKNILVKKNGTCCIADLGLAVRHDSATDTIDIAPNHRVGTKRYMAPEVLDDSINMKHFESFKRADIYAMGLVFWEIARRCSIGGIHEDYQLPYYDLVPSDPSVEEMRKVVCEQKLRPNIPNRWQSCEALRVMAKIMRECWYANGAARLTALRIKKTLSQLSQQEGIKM

[1] = test system: human parenchymal fibroblasts; assay: TGFβ-induced fibrogenic gene expression in human parenchymal lung fibroblasts; assay type: cell-based
Description: Experiments described in the current Example and Example 14 involved culture of human parenchymal fibroblasts, measurement of their proliferation and gene expression response, the methods for which are detailed in Schuliga et al 2009 (Am J Respir Cell Mol Biol. 2009; 41(6):731-41).
The investigation of fibrogenesis may be undertaken in in vivo models typically using rodents. However, differences in behavior of cell types and species differences in protein structures and signaling systems create some limitations in the predictive value of such models. Additional valuable evidence of impacts on fibrogenesis can be obtained from the use of human fibroblasts isolated from the parenchyma and maintained in cell culture (Schuliga et al. (2009) Am J Respir Cell Mol Biol 41(6):731-741; Westergren-Thorsson et al. (2004) Int J Biochem Cell Biol 36(8): 1573-1584).
The data shown is for parenchymal lung fibroblasts from both patients with the pulmonary fibrotic disease, idiopathic pulmonary fibrosis (IPF) and those derived samples of non-IPF donors. […] Colla is a subunit of the fibrillar type collagen that is deposited in excess in the extracellular matrix in fibrotic lesions.
FIG. 15B was performed in the same manner as for FIG. 15A except that in this experiment the fibroblasts are cultured as a suspended spheroid, rather than in 2D monolayer culture.

[2] = test system: GRE-dependent gene expression; assay: Glucocorticoid-induced gene expression in BEAS-2B cells; assay type: cell-based, human
Description: (§1) The methods used in Examples 1 to 5 (and 10, 19, 20) are similar to those reported in Salem et al 2012 (Br J Pharmacol. 166:2036-2048) and again in Keenan et al 2014 (Respiratory Research, e15:55) in which methods for cell culture, GRE assays and gene expression measurements are fully described. Additional methods for growth of respiratory syncytial virus (RSV) and rhinovirus (RV) are described in Collins et al 2007 (Respir Physiol Neurobiol. 2007 Jun. 15; 156(3):345-52.) and by Xatzipsalti and papdopoulos, 2007 (Contrib Microbiol. 2007; 14:33-41).
Data are presented as the means and SEM of 4 independent experiments. *P<0.05, cf corresponding Dex 30 nM response. […] Thus, TNFα contribution to glucocorticoid resistance, may be independent of TGFβ. The resistance is exemplified by the epithelial sodium channel alpha subunit SCNN1a which assembles into a Na channel that is thought to contribute to water reabsorption from the airspaces that are flooded during acute lung injury.
TGFβ suppression ranged in magnitude amongst the genes selected for analysis. […] TGFβ and Dex synergise in increasing the expression of PAI-1 (FIG. 24B).

[3] = test system: primary human airway epithelial cells; assay: Dex-induced gene expression in ALI-differentiated primary human airway epithelial cells; assay type: cell-based; details: 3 and 10 μM
Description: as §1
These studies were undertaken in ALI-differentiated culture of primary human airway epithelial cells.

GRE-regulated genes = assay: PF670462 aerosol exposure of Balb/C mice, lung gene expression; assay type: in vivo; details: Balb/C female mice; aerosol 0.03-10 mg/ml, 7 min, 24 and 4 hours before harvest
Description: […] and GILZ are known to exert anti-inflammatory actions in by suppression of the master pro-inflammatory transcription factor, NFκB.

RSV = RSV infection in Balb/C mice, PF670462 on days 3, 4 and 5; assay type: in vivo
bleomycin-treated mice = test system: bleomycin-treated mice
Description: Bleomycin is commonly used in mice to model pulmonary fibrosis. This anti-cancer agent is known to induce pulmonary fibrosis in a subset of patients. […] Eventually the intensity of the fibrosis declines but never fully resolves. Early treatment in the model (during the first 3 days) may influence the outcome via anti-inflammatory effects (Limjunyawong et al. (2014) Physiol Rep. 2(2): e00249). Delayed treatment is used to specifically examine impact on the fibrogenic process.

[4] = BEAS-2B, Dex 100 nM, PF670462 1-10 μM prior incubation
[5] = FIG. 6A, BEAS-2B, SB431542 1 μM, PF670462 10 μM
[6] = Mock-treated mice, PF670462 ip, RT-qPCR
[7] = female Balb/C mice inoculated with RSV, Dex 1 mg/kg (i.p.)/day from day 1, PF670462 30 mg/kg days 3, 4 and 5
[8] = 3-day bleomycin, female mice, PF670462 30 mg/kg ip
[9] = 14 days bleomycin, PF670462 30 mg/kg/day delayed until day 3
[10] = 21 day bleomycin, female mice, PF670462 daily from day 8 until day 21
[11] = 21 day bleomycin, female mice, PF670462 day 8 to 21

Nc1nccc(-c2c(-c3ccc(F)cc3)ncn2C2CCCCC2)n1 [PF670462]
IC50 (ALK5): 1160 nM
TGFβ induction of Col1a (collagen 1A) expression ([1]; 2D monolayer fibroblasts from IPF and non-IPF donors, TGFβ 24 hour, 3 μM): significantly suppressed
TGFβ-induced collagen 1A expression in IPF fibroblasts cultured as suspended spheroid ([1]; FIG. 15B, 3 μM): inhibits
TGFβ-induced collagen 1A increase in non-IPF derived cultures as suspended spheroid ([1]; FIG. 15B, 3 μM): not signficantly affected
fibrogenic actions of TGFβ (FIGS. 15A-C, collagen 1A and CTGF) ([1]; IPF or non-IPF donors, 2D or 3D): inhibited
suppression of Dex (30 nM) gene expression response (SCNN1a) induced by IL-13/IL-4 ([2]; BEAS-2B cells, IL-13/IL-4 at 10 ng/ml, PF670462 1 or 10 μM, SB431542 1 μM): partially attenuated
RSV-induced impairment of Dexamethasone ZBTB16 gene expression responses ([2]; BEAS-2B cells, RSV 0.1 or 1.0 MOI, pretreatment): prevented
impairment of Dexamethasone 30 nM GILZ gene expression responses by RV16 infection ([2]; BEAS-2B cells, RV16 1.0 MOI, pretreatment): greatly diminished
TGFβ1 induced suppression of gene expression responses to Dex (30 nM), exemplified by SCNN1a expression ([2]; BEAS-2B cells, TGFβ1 24 hours, PF670462 1 or 10 μM): concentration dependently attenuated
suppression of Dex (30 nM) gene expression response (SCNN1a) induced by the combination TNFα, IL-13 and IL-4 ([2]; BEAS-2B cells, each at 0.1 ng/ml, PF670462 1 or 10 μM, SB431542 1 μM): partially attenuated
TGFβ suppression of glucocorticoid-induced CDKN1C (p57kip2) expression ([2]; BEAS-2B, Dex 100 nM, PF670462 1-10 μM): unaffected
TGFβ suppression of Dex-induced expression of FKBP5 [2, 4]: prevented
TGFβ suppression of Dex-induced expression of GILZ [2, 4]: prevented
TGFβ suppression of Dex-induced expression of SCNNIA (ENaCα) [2, 4]: prevented
TGFβ suppression of Dex-induced expression of ZBTB16 (PLZF) [2, 4]: prevented
increase in expression of PAI-1 by TGFβ and Dex ([2]; BEAS-2B, FIG. 24B, PF670462 1-10 μM): concentration-dependently reduced
levels of GILZ in RV infected cells [2, 5]: increased
levels of GILZ in uninfected cells [2, 5]: but not in uninfected cells
RV infection-induced decrease of Dex-induced GILZ expression ([2]; FIG. 6B, BEAS-2B, SB431542 3 μM, PF670462 3 μM): prevented
TGFβ suppression of (Dex 30 nM)-induced expression of SCNNIA [3]: prevented
TGFβ suppression of (Dex 30 nM)-induced expression of ZBTB16 [3]: prevented
lung expression of GILZ (GRE-regulated genes): dose-related increase
lung expression of ZBTB116 (GRE-regulated genes): dose-related increase
expression of CXCL5 (RSV; FIG. 8B, during RSV infection): no effect alone
expression of KC (RSV; FIG. 8B, during RSV infection): no effect alone
expression of TNFα (RSV; FIG. 8B, during RSV infection): no effect alone
IFN expression (IFNα, IFNβ and IFNγ) (RSV; FIG. 8C, RSV treated mice, bronchoalveolar lavage cells and lung tissue, PF670462 given with Dex): prevented
expression of GILZ in lung tissue (RSV; [6]): directly stimulates
expression of MKP1 in lung tissue (RSV; [6]): neither Dex nor PF670462 alone increased expression
expression of ZBTB16 in lung tissue (RSV; [6]): directly stimulates
bronchoalveolar lavage fluid (BALF) cellular content (RSV; [7]): no effect
bronchoalveolar lavage fluid (BALF) protein content (RSV; [7]): no effect
Bleomycin induction of CTGF in lung tissue (bleomycin-treated mice; [8]): significantly reduced
Bleomycin induction of Col1a in lung tissue (bleomycin-treated mice; [8]): significantly reduced
Bleomycin induction of PAI-1 in lung tissue (bleomycin-treated mice; [8]): significantly reduced
Bleomycin induction of TIMP1 in lung tissue (bleomycin-treated mice; [8]): significantly reduced
BAL protein levels (bleomycin-treated mice; 3-day bleomycin, female mice, PF670462 30 mg/kg ip once daily): significantly reduced
BAL cells (increase by bleomycin) (bleomycin-treated mice; 3-day bleomycin, male mice): but not in PF670462- or Dex-treated mice
Col1A expression increased by bleomycin, lung tissue (bleomycin-treated mice; 3-day bleomycin, male mice): reduced
Col3 expression increased by bleomycin, lung tissue (bleomycin-treated mice; 3-day bleomycin, male mice): reduced
IL-6 increases in response to bleomycin, lung tissue (bleomycin-treated mice; 3-day bleomycin, male mice): reduced
TIMP1 expression increased by bleomycin, lung tissue (bleomycin-treated mice; 3-day bleomycin, male mice): reduced
fibrogenesis / efficacy in the bleomycin model (bleomycin-treated mice; 4 independent studies, 3 to 21 days, male and female mice, PF670462 30 mg/kg/day, ip): able to reduce fibrogenesis
accumulation of cells on the BAL fluid (bleomycin-treated mice; [9]): significantly reduced
wet weight of the lung (bleomycin-treated mice; [9]): significantly reduced
accumulation of cells in the BAL (bleomycin-treated mice; [10]): significantly reduced
accumulation of protein in the BAL (bleomycin-treated mice; [10]): significantly reduced
increase in lung wet weight (bleomycin-treated mice; [10]): significantly reduced
expression of CTGF in the lung tissue (bleomycin-treated mice; [11]): significantly reduced
expression of interleukin-6 (IL-6) in the lung tissue (bleomycin-treated mice; [11]): significantly reduced
expression of plasminogen activation inhibitor-1 (PAI-1) in the lung tissue (bleomycin-treated mice; [11]): significantly reduced
expression of glucocorticoid regulated gene GILZ in lung (bleomycin-treated mice; 21 day experiment, equally in saline and bleomycin-treated mice): induced
